Data on four molecules can be found in patent US11000033B2, “Ketone or oxime compound, and herbicide” (NISSAN CHEMICAL CORPORATION, priority 2014, dated 2021).

What all share (format): in vivo
For data set [1], the system named is Echinochloa oryzacola Vasing. Kind of data set: Test Example 1: herbicidal activity, application before weed generation in submerged conditions (symbol A). A digest of the protocol:
(§1)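 Paddy pre-emergence test. Formulated emulsion, water-diluted to a predetermined rate, is applied to floodwater on sowing day; rice transplanted at 2.5 leaves. Effect read at 3 weeks on a 0–5 herbicidal-ratio scale.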

Data set [2] deals with Monochoria vaginalis. Kind of data set: Test Example 1: herbicidal activity, application before weed generation in submerged conditions (symbol C). A digest of the protocol: as §1
Data set [3] relates to directly sowed rice plant. Kind of data set: Test Example 3: effect on crop by foliage application, Wagner pot (symbol b). A digest of the protocol:
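Steps: fill a 1/10000-are Wagner pot with alluvial soil; add water and mix to submerge at 0.1–0.5 cm depth; sow rice plus Echinochloa crus-galli var. crus-galli, Leptochloa chinensis and Cyperus difformis; grow in a 25–30 °C greenhouse.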

Data set [4] deals with Digitaria ciliaris. Put plainly: Test Example 4: herbicidal effect by soil treatment (symbol F). A digest of the protocol:
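Seeds were sown in sterilized diluvial soil, covered with about 1.5 cm of soil, and the soil surface was sprayed with a water-diluted emulsion of the compound at a predetermined rate. Plants grew in a greenhouse at 25° C. to 30° C.; effects were scored visually 3 weeks after application.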

Data set [5] deals with soybean. Put plainly: Test Example 4: effect on crop by soil treatment (symbol d). To be noted: for d: soybean, effect grade on crop: 320 g/ha. The method, boiled down:
(§2)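 Greenhouse culture at 25° C. to 30° C. followed sowing of seed in spots on sterilized diluvial soil with a soil cover close to 1.5 cm thick.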

In data set [6] the test system is wheat. Kind of data set: Test Example 4: effect on crop by soil treatment (symbol e). The note with it: for e: wheat, effect grade on crop: 320 g/ha. A digest of the protocol:
as §2

Data set [7] relates to rapeseed. Put plainly: Test Example 4: effect on crop by soil treatment (symbol g). The note with it: for g: rapeseed, effect grade on crop: 320 g/ha. A digest of the protocol: as §2
Data set [8] relates to Echinochloa crus-galli var. crus-galli. Kind of data set: Test Example 5: herbicidal effect by foliage application, plastic box (symbol H). The note with it: 3 weeks after application. The method, boiled down:
(§3)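 Sowing in sterilized diluvial soil, 14 days' greenhouse growth at 25° C. to 30° C., then uniform small-sprayer foliar application of aqueous emulsion dilution; plants scored three weeks afterwards.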

The test system of data set [9] is Lolium multiflorum Lam. Put plainly: Test Example 5: herbicidal effect by foliage application, plastic box (symbol K). The note with it: 3 weeks after application. The method, boiled down:
as §3

Data set [10] concerns Amaranthus retroflexus. Put plainly: Test Example 5: herbicidal effect by foliage application, plastic box (symbol N). The note with it: 3 weeks after application. A digest of the protocol:
as §3

Data set [11] concerns Chenopodium album. Kind of data set: Test Example 5: herbicidal effect by foliage application, plastic box (symbol O). The note with it: 3 weeks after application. The method, boiled down:
as §3

The subject of data set [12] is Galium spurium. Put plainly: Test Example 5: herbicidal effect by foliage application, plastic box (symbol Q). The note with it: 3 weeks after application. The method, boiled down: as §3
Data set [13] concerns Veronica persica. Put plainly: Test Example 5: herbicidal effect by foliage application, plastic box (symbol R). To be noted: 3 weeks after application. The method, boiled down: as §3
Data set [14] deals with soybean. Put plainly: Test Example 5: effect on crop by foliage application, plastic box (symbol d). The note with it: 3 weeks after application. The method, boiled down:
(§4)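 Diluvial soil, sterilized and boxed (21 × 13 × 7 cm), received spot-sown seed covered by about 1.5 cm soil; plants were then greenhouse-grown at 25–30° C.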

The test system of data set [15] is wheat. Put plainly: Test Example 5: effect on crop by foliage application, plastic box (symbol e). The note with it: 3 weeks after application. A digest of the protocol: as §4
The test system of data set [16] is beet. Kind of data set: Test Example 5: effect on crop by foliage application, plastic box (symbol f). The note with it: 3 weeks after application. A digest of the protocol:
as §4

Setting [17] is: application herbicide amount 269 g/ha.
[18] abbreviates: application herbicide amount 320 g/ha.

As to `CC(=O)C(C)C1CC(O)=C(c2c(C)cc(C)cc2C)C1=O` (stereo not shown) [2-005], the “Herbicidal effect grade, A: Echinochloa oryzacola Vasing.” value in data set [1] (setting [17]) is 3 (Herbicidal ratio of 40% or higher and lower than 70%). Besides, the “Herbicidal effect grade, C: Monochoria vaginalis” value (shortened to “Herbicidal effect grade, C”) in data set [2] (setting [17]) is recorded as 0 (Herbicidal ratio of 5% or lower (almost no effect)). Moreover, in [3] (setting [17]), the “effect on crop b (directly sowed rice plant), grade 0-5” value (“effect on crop b” below) is 5 (Herbicidal ratio of 90% or more (almost completely withered)). Also, the “F: Digitaria ciliaris, herbicidal effect grade” value in data set [4] (setting [17]) was 5 (Herbicidal ratio of 90% or more (almost completely withered)). For the same molecule, the “d: soybean, effect on crop grade” value in data set [5] (setting [17]) and in data set [14] (269 g/ha) was 0 (Herbicidal ratio of 5% or lower (almost no effect)) in each case. For the same molecule, the “e: wheat, effect on crop grade” value in [6] (setting [17]) and in data set [15] (269 g/ha) was 0 (Herbicidal ratio of 5% or lower (almost no effect)) in each case. Moreover, the “g: rapeseed, effect on crop grade” value in data set [7] (setting [17]) is 4 (Herbicidal ratio of 70% or higher and lower than 90%). The “H: Echinochloa crus-galli var. crus-galli, herbicidal effect grade” value in data set [8] (269 g/ha) is reported as 5 (Herbicidal ratio of 90% or more (almost completely withered)). The “K: Lolium multiflorum Lam., herbicidal effect grade” value in [9] (269 g/ha) is on record as 5 (Herbicidal ratio of 90% or more (almost completely withered)). For the same molecule, in data set [10] (269 g/ha), the “N: Amaranthus retroflexus, herbicidal effect grade” value is listed as 0 (Herbicidal ratio of 5% or lower (almost no effect)). The “O: Chenopodium album, herbicidal effect grade” value in data set [11] (269 g/ha) is 0 (Herbicidal ratio of 5% or lower (almost no effect)). For the same molecule, the “Q: Galium spurium, herbicidal effect grade” value in [12] (269 g/ha) is given as 0 (Herbicidal ratio of 5% or lower (almost no effect)). The “R: Veronica persica, herbicidal effect grade” value in data set [13] (269 g/ha) is on record as 0 (Herbicidal ratio of 5% or lower (almost no effect)). Further, the “f: beet, effect on crop grade” value in data set [16] (269 g/ha) is 2 (Herbicidal ratio of 20% or higher and lower than 40%).

Regarding `CC(CC1CC(O)=C(c2c(C)cc(C)cc2C)C1=O)=NOCC(C)Cl` (stereo not shown) [1-121], in [1] (setting [18]), the “Herbicidal effect grade, A: Echinochloa oryzacola Vasing.” value is on record as 5 (Herbicidal ratio of 90% or more (almost completely withered)). The “Herbicidal effect grade, C” value in data set [2] (setting [18]) is 3 (Herbicidal ratio of 40% or higher and lower than 70%). Further, the “effect on crop b” value in data set [3] (setting [18]) is given as 5 (Herbicidal ratio of 90% or more (almost completely withered)). For the same molecule, the “F: Digitaria ciliaris, herbicidal effect grade” value in data set [4] (320 g/ha) was 5 (Herbicidal ratio of 90% or more (almost completely withered)). In addition, the “d: soybean, effect grade on crop” value in data set [5] is 0 (Herbicidal ratio of 5% or lower (almost no effect)). Besides, the “e: wheat, effect grade on crop” value in data set [6] is 0 (Herbicidal ratio of 5% or lower (almost no effect)). Also, in data set [7], the “g: rapeseed, effect grade on crop” value is 3 (Herbicidal ratio of 40% or higher and lower than 70%). In data set [8] (320 g/ha), the “H: Echinochloa crus-galli var. crus-galli, herbicidal effect (criteria 0-5)” value is 5 (Herbicidal ratio of 90% or more (almost completely withered)). Also, in [9] (320 g/ha), the “K: Lolium multiflorum Lam., herbicidal effect (criteria 0-5)” value is 5 (Herbicidal ratio of 90% or more (almost completely withered)). The “N: Amaranthus retroflexus, herbicidal effect (criteria 0-5)” value in [10] (320 g/ha) is 0 (Herbicidal ratio of 5% or lower (almost no effect)). Besides, the “O: Chenopodium album, herbicidal effect (criteria 0-5)” value in data set [11] (320 g/ha) is 3 (Herbicidal ratio of 40% or higher and lower than 70%). Moreover, in [12] (320 g/ha), the “Q: Galium spurium, herbicidal effect (criteria 0-5)” value is given as 0 (Herbicidal ratio of 5% or lower (almost no effect)). Besides, in data set [13] (320 g/ha), the “R: Veronica persica, herbicidal effect (criteria 0-5)” value was 3 (Herbicidal ratio of 40% or higher and lower than 70%). Besides, the “d: soybean, effect on crop (criteria 0-5)” value in [14] (320 g/ha) was 2 (Herbicidal ratio of 20% or higher and lower than 40%). Moreover, in data set [15] (320 g/ha), the “e: wheat, effect on crop (criteria 0-5)” value was 3 (Herbicidal ratio of 40% or higher and lower than 70%). For the same molecule, in data set [16] (320 g/ha), the “f: beet, effect on crop (criteria 0-5)” value is given as 0 (Herbicidal ratio of 5% or lower (almost no effect)).

Regarding `CON=C(C)CC1CC(OC(=O)CN(C)C(=O)c2ccccc2)=C(c2c(C)cc(C)cc2C)C1=O` (stereo not shown) [1-139], the “Herbicidal effect grade, A: Echinochloa oryzacola Vasing.” value in data set [1] (setting [18]) is recorded as 5 (Herbicidal ratio of 90% or more (almost completely withered)). For the same molecule, the “Herbicidal effect grade, C” value in data set [2] (setting [18]) was 1 (Herbicidal ratio of 5% or higher and lower than 20%). Besides, the “effect on crop b” value in data set [3] (setting [18]) is listed as 5 (Herbicidal ratio of 90% or more (almost completely withered)). For the same molecule, in data set [4] (320 g/ha), the “F: Digitaria ciliaris, herbicidal effect grade” value is 5 (Herbicidal ratio of 90% or more (almost completely withered)). Besides, the “d: soybean, effect grade on crop” value in data set [5] is 0 (Herbicidal ratio of 5% or lower (almost no effect)). The “e: wheat, effect grade on crop” value in [6] is 3 (Herbicidal ratio of 40% or higher and lower than 70%). Moreover, the “g: rapeseed, effect grade on crop” value in [7] is 1 (Herbicidal ratio of 5% or higher and lower than 20%). Further, in data set [8] (320 g/ha), the “H: Echinochloa crus-galli var. crus-galli, herbicidal effect (criteria 0-5)” value is 5 (Herbicidal ratio of 90% or more (almost completely withered)). Besides, in [9] (320 g/ha), the “K: Lolium multiflorum Lam., herbicidal effect (criteria 0-5)” value was 5 (Herbicidal ratio of 90% or more (almost completely withered)). Further, the “N: Amaranthus retroflexus, herbicidal effect (criteria 0-5)” value in [10] (320 g/ha) is reported as 0 (Herbicidal ratio of 5% or lower (almost no effect)). For the same molecule, the “O: Chenopodium album, herbicidal effect (criteria 0-5)” value in [11] (320 g/ha) was 1 (Herbicidal ratio of 5% or higher and lower than 20%). Besides, the “Q: Galium spurium, herbicidal effect (criteria 0-5)” value in data set [12] (320 g/ha) was 3 (Herbicidal ratio of 40% or higher and lower than 70%). In data set [13] (320 g/ha), the “R: Veronica persica, herbicidal effect (criteria 0-5)” value is 2 (Herbicidal ratio of 20% or higher and lower than 40%). Also, the “d: soybean, effect on crop (criteria 0-5)” value in data set [14] (320 g/ha) was 1 (Herbicidal ratio of 5% or higher and lower than 20%). Further, in [15] (320 g/ha), the “e: wheat, effect on crop (criteria 0-5)” value is recorded as 5 (Herbicidal ratio of 90% or more (almost completely withered)). Also, the “f: beet, effect on crop (criteria 0-5)” value in data set [16] (320 g/ha) was 0 (Herbicidal ratio of 5% or lower (almost no effect)).

Take `COCCON=C(C)CC1CC(O)=C(c2c(C)cc(-n3cc(Cl)cn3)cc2C)C1=O` (stereo not shown) [9-016]: the “A (Echinochloa oryzacola Vasing.) herbicidal effect grade” value in [1] (setting [18]) was 5 (Herbicidal ratio of 90% or more (almost completely withered)). For the same molecule, the “C (Monochoria vaginalis) herbicidal effect grade” value in data set [2] (setting [18]) is 2 (Herbicidal ratio of 20% or higher and lower than 40%). The “b (directly sowed rice plant) effect on crop grade” value in data set [3] (application herbicide amount 320 g/ha, Table 24) is 5 (Herbicidal ratio of 90% or more (almost completely withered)). In addition, the “Herbicidal effect grade, F: Digitaria ciliaris” value in data set [4] (setting [18]) is 5 (Herbicidal ratio of 90% or more (almost completely withered)). The “Effect on crop grade, d: soybean” value in data set [5] (setting [18]) is 0 (Herbicidal ratio of 5% or lower (almost no effect)). In addition, the “Effect on crop grade, e: wheat” value in data set [6] (setting [18]) is 0 (Herbicidal ratio of 5% or lower (almost no effect)). The “Effect on crop grade, g: rapeseed” value in data set [7] (setting [18]) is 0 (Herbicidal ratio of 5% or lower (almost no effect)). Also, the “H: Echinochloa crus-galli var. crus-galli, herbicidal effect grade” value in data set [8] (320 g/ha) is recorded as 5 (Herbicidal ratio of 90% or more (almost completely withered)). Also, the “K: Lolium multiflorum Lam., herbicidal effect grade” value in [9] (320 g/ha) is 5 (Herbicidal ratio of 90% or more (almost completely withered)). In addition, the “N: Amaranthus retroflexus, herbicidal effect grade” value in [10] (320 g/ha) is on record as 0 (Herbicidal ratio of 5% or lower (almost no effect)). Also, the “O: Chenopodium album, herbicidal effect grade” value in data set [11] (320 g/ha) is 2 (Herbicidal ratio of 20% or higher and lower than 40%). Further, the “Q: Galium spurium, herbicidal effect grade” value in [12] (320 g/ha) is 2 (Herbicidal ratio of 20% or higher and lower than 40%). The “R: Veronica persica, herbicidal effect grade” value in data set [13] (320 g/ha) was 1 (Herbicidal ratio of 5% or higher and lower than 20%). Besides, in [14] (320 g/ha), the “d: soybean, effect on crop grade” value was 3 (Herbicidal ratio of 40% or higher and lower than 70%). The “e: wheat, effect on crop grade” value in data set [15] (320 g/ha) is 3 (Herbicidal ratio of 40% or higher and lower than 70%). The “f: beet, effect on crop grade” value in data set [16] (320 g/ha) is 0 (Herbicidal ratio of 5% or lower (almost no effect)).
